Assay [1] has as its system MDA-MB435 breast carcinoma cells. Put plainly: MDA-MB435 tumors in SCID mice. The assay is classed as in vivo. As for the experimental part: Animal studies. Female SCID mice (6-week-old) (Tacomic) were injected with 10^6 MDA-MB435 breast carcinoma cells. Tumors were palpable on day 7. On days 10 and 13, test peptides (620 μg in 50 μL PBS) were injected into the tumor areas of 5 mice. Tumor volumes (1×w^2) were determined using calipers. No weight changes were observed. Established tumors in control mice were injected with test peptides and tumor tissues were excised and sectioned after 3 days. Tissues were fixed (10% buffered formalin), then rapidly paraffin-embedded. Apoptosis was detected by the TUNEL assay.

The subject of assay [2] is H460 lung cancer cells. Put plainly: Apoptosis in H460 lung cancer cells. The assay is classed as cell-based. As for the experimental part:
Bcl-2 siRNAs and antisense oligonucleotides-The target siRNA SMARTpools for Bcl-2 and Bak and the siRNA oligonucleotide for Nur77 (5'-[…] NO: 67) were purchased from Dharmacon Research Inc. Target or control siRNA were transfected at a final concentration of 200 nM into cells at 40% confluency using Oligofectamine reagent (Invitrogen) according to the manufacturer's recommendations. After 48 h, cells were analyzed. Bcl-2 antisense oligonucleotide targeting Bcl-2 and negative control oligonucleotides were obtained from Calbiochem. […] The percentages of apoptotic cells were determined by counting 300 GFP-positive cells, scoring cells having nuclear fragmentation and/or chromatin condensation. Cell culture. […] HEK293T embryonic kidney cells were grown in DME medium supplemented with 10% FBS. Jurkat and Jurkat cells stably expressing Bcl-2 were kindly provided by Dr. John Reed, and they were maintained in RPMI1640 medium.

Assay [3] has as its target T1, Bcl-2 (Homo sapiens, UniProt P10415). Put plainly: Competition assay of Nur77/ΔDBD binding with Bcl-2. The arrangement: expressed in transfected cells; host or cells: HEK293T. As for the experimental part: Nur77/Bcl-2 interaction assays—Reporter gene assays using NurRE-tk-CAT in CV-1 cells, and GST pull-down assay were described previously (Li, et al. 2000 Science 289:1159-1164). For the mammalian two-hybrid assays, CV-1 cells were co-transfected with pcDNA-Gal4TAD-Nur77 or pcDNA-Gal4TAD-Nur77/ΔDBD and pcDNA-Gal4 DBD-Bcl-2/ΔTM along with a luciferase reporter gene driven by four copies of the Gal-4-binding site. The cells were harvested and reporter gene activity was measured. For Co-IP assays, HEK293T cells were transiently transfected with various expression plasmids using a modified calcium phosphate precipitation method (Wu et al, 1997) in the presence of caspase inhibitors (zVAD-fmk) to prevent degradation of Nur77 protein due to apoptosis. Cells were suspended in lysis buffer (50 mM Tris-HCl, PH7.4; 150 mM NaCl; 20 mM EDTA; 1% NP-40; 1 mM PMSF; 50 μg/ml Leupeptin; […] Aprotinin; 0.1 mM Na3VO4; and 1 mM DTT). Cells extracts were cleared by incubation with the Protein A/G plus Agarose beads (Santa Cruz) and then incubated with appropriate antibody and 30 μl of Protein A or G plus Agarose beads overnight at 4° C. […] Immunoreactive products were detected by chemiluminescence with an enhanced chemiluminescence system (ECL) (Amersham).
Target sequence in this assay (P10415 whole entry, the tested form may be a part): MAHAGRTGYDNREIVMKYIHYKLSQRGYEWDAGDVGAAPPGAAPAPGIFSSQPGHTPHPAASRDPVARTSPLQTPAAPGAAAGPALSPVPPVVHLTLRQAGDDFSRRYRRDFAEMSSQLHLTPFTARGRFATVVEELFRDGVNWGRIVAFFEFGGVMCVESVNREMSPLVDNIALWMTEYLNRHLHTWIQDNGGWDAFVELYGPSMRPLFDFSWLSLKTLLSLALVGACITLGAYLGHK

The target in assay [4] is T1, Bcl-2. Kind of assay: Bcl-2 conformational change, anti-Bcl-2/BH3 antibody staining of HEK293T cells transfected with Bcl-2. The assay is classed as cell-based. Further details: expressed in transfected cells; host or cells: HEK293T. As to the method:
Such a Bcl-2 conformation is recognized by an anti-Bcl-2 antibody raised against the Bcl-2 BH3 domain. To determine whether NuBCP-9 induced a Bcl-2 conformational change, flow cytometric assays were conducted which HEK293T cells transfected with Bcl-2 were exposed to NuBCPs and subsequently stained with the anti-Bcl-2/BH3 antibody.
Target sequence in this assay (P10415 whole entry, the tested form may be a part): as above

Assay [5] has as its target T1, Bcl-2. Kind of assay: Immunoprecipitation of endogenous Bcl-2 by anti-Bcl-2/BH3 antibody in treated cells. The assay is classed as cell-based. The arrangement: precipitated endogenous Bcl-2 in cells treated with L-NuBCP-9-r8 or D-NuBCP-9-r8; endogenous in cells.
Target sequence in this assay (P10415 whole entry, species assumed, the tested form may be a part): as the sequence (P10415 whole entry, the tested form may be a part) above
Assay [6] relates to breast cancer. Kind of assay: Treatment of a patient diagnosed with breast cancer. The note with it: intravenous dose at regular intervals over six weeks. The assay is classed as in vivo. The text has this:
A patient diagnosed with breast cancer is selected for treatment with the D-NuBCP-9-r8 peptide. The patient is given a therapeutically effective intravenous dose of the peptide at regular intervals over a six week period. Following the end of the treatment period it is observed that the breast cancer has regressed.

Assay [7] deals with H460 lung cancer cells. Put plainly: Apoptosis in H460 lung cancer cells. The assay is classed as cell-based. The note with it: H460 cells; peptides conjugated with CPP, 10 μM.

[ ]: non-standard residue; d: D form. Ahx = NCCCCCC(=O)O

As for “acetyl------------fsrslhsllGXrrrrrrrr-amide (Ac-[dF][dS][dR][dS][dL][dH][dS][dL][dL]G[Ahx][dR][dR][dR][dR][dR][dR][dR][dR]-NH2; SMILES CC(=O)N[C@H](Cc1ccccc1)C(=O)N[C@H](CO)C(=O)N[C@H](CCCNC(=N)N)C(=O)N[C@H](CO)C(=O)N[C@H](CC(C)C)C(=O)N[C@H](Cc1c[nH]cn1)C(=O)N[C@H](CO)C(=O)N[C@H](CC(C)C)C(=O)N[C@H](CC(C)C)C(=O)NCC(=O)NCCCCCC(=O)N[C@H](CCCNC(=N)N)C(=O)N[C@H](CCCNC(=N)N)C(=O)N[C@H](CCCNC(=N)N)C(=O)N[C@H](CCCNC(=N)N)C(=O)N[C@H](CCCNC(=N)N)C(=O)N[C@H](CCCNC(=N)N)C(=O)N[C@H](CCCNC(=N)N)C(=O)N[C@H](CCCNC(=N)N)C(N)=O) [D-NuBCP-9-r8]”, in assay [1] (SCID mice, 620 μg injected into tumor areas on days 10 and 13, vs control NuBCP-9/AA-r8), the growth of tumors result is on record as “dramatically suppressed”. The “apoptosis of tumor cells in vivo” value in assay [1] (TUNEL assay) is “potently induced”. In addition, the “apoptotic function after Bcl-2 antisense oligonucleotides” value in assay [2] (Bcl-2 antisense oligonucleotides) is listed as “attenuated”. In addition, the “apoptotic effect after transfection of Bcl-2 siRNA” value in assay [2] (H460 cells, Bcl-2 siRNA vs control GFP siRNA) is “inhibited”. Moreover, the “binding of Nur77/ΔDBD with Bcl-2 in presence of peptide” value in assay [3] is listed as “abrogated”. For the same substance, in assay [4] (flow cytometry), the “Bcl-2 immunofluorescence by anti-Bcl-2/BH3 antibody” value is on record as “strong Bcl-2 immunofluorescence”. Moreover, the “Bcl-2 staining by anti-Bcl-2/BH3 antibody” value in assay [4] (fluorescence microscopy) was “strongly stained”. Moreover, the “precipitation of endogenous Bcl-2 by anti-Bcl-2/BH3 antibody” value in assay [5] is “precipitated”. Besides, the “breast cancer outcome after treatment” value in assay [6] was “regressed”. In assay [7], the apoptotic effect entry is “retained and even slightly enhanced”.

Values taken from US7745574B2, “Compounds that regulate apoptosis” (The Burnham Institute, priority 2005, dated 2010).
